From publication PMC7828228, “Babesia Bovis Ligand-Receptor Interaction: AMA-1 Contains Small Regions Governing Bovine Erythrocyte Binding” (International Journal of Molecular Sciences, 2021)
Ends that are not written are not given here.

Experiments:
bovine erythrocytes = assay: Radiolabelled peptide bovine erythrocyte binding assay (initial screen)
Method: Peptide selection was based on the degree of conservation and the presence of functionally constricted regions found throughout B. bovis ama-1 gene. Twelve peptides were synthesised using the tert-butoxycarbonyl (t-Boc) strategy and solid-phase synthesis methodology. Cysteine residues were replaced by serine residue to avoid oxidation; a tyrosine residue was added to peptides lacking one in their native sequences to enable radiolabelling. The peptides were analysed using reversed-phase high-performance liquid chromatography (RP-HPLC) and MALDI-TOF mass spectrometry (Bruker Daltonics) after having been cleaved by the low–high hydrogen fluoride technique. Every peptide (10 μL) diluted at 1mg/mL in 4-(2-hydroxyethyl)-1-piperazineethanesulphonic acid buffered saline (HBS) was individually radiolabelled for 15 min using 3 μL Na^125I (100 mCi/mL; ARC) and 15 μL chloramine T (2.75 mg/mL). […] A gamma counter (Packard Cobra II) was used for measuring/quantifying single samples’ radioactivity.
(§1) The assays for every B. bovis AMA-1-derived synthetic peptide binding to bovine erythrocytes were carried out as described for P. falciparum, with some modifications. […] HABP bovine erythrocyte binding selection criteria were determined according to that established for P. falciparum. […]

bovine RBCs = assay: Saturation assay of radiolabelled HABPs; format: binding; conditions: saturation analysis; 7.5 × 10^7 RBCs, radiolabelled HABP 0–6000 nM, ± unlabelled peptide ~26 μM, 90 min at RT, 1:1 interaction model
Method: Modified binding assays were carried out to determine kinetic constants associated with B. bovis AMA-1 HABP binding interaction with bovine RBCs. Briefly, 7.5 × 10^7 RBCs were incubated with a wide range of concentrations of each radiolabelled HABP (0–6000 nM) in the absence or presence of unlabelled peptide (~26 μM) at final 245 μL volume. Samples were incubated for 90 min at RT and then washed twice with HBS before measuring cell-associated radioactivity on a gamma counter. Equilibrium dissociation constants (kD), equivalent to the ligand concentration (moles/litre) occupying half of the receptors, were calculated by equilibrium phase curve (using a 1:1 interaction model). Hill coefficients (nH) were calculated by taking saturation results; positive cooperativity was assumed if nH had values higher than 1 which could have been the result of a binding site’s increased affinity due to a ligand’s previous binding to another site. Conversely, nH values lower than 1 would have indicated negative cooperativity (also called antagonism) and the first ligand molecule’s binding would have reduced the probability of a second molecule binding.

[1] = tested on: trypsin-, chymotrypsin-, and neuraminidase-treated bovine erythrocytes; assay: Binding assay with enzyme-treated erythrocytes; conditions: 37 °C, 1h 30 min, untreated RBC as control, SD below 5%
Method: A blood sample was obtained by jugular venepuncture from a clinically healthy Normande 18month-old bull and collected in anticoagulant tubes. The animal was properly restrained/fastened and then its head was secured by a strap and rope. After locating the external jugular vein and applying pressure, the area was disinfected with ethanol for inserting the needle at a 30° angle and 20 mL blood samples were collected in tubes containing sodium citrate using the closed system. The above procedures and animal maintenance and handling were carried out at the Remanso farm, according to guidelines for the care of large animals established by Universidad de Ciencias Aplicadas y Ambientales (U.D.C.A)’s ethics committee (regulated by agreement No. 285/2008) using the protocol described in the minute 201901. The collected blood was washed thrice with HBS (1:1 ratio) to eliminate the sera and the leucocyte layer by spinning at 1600× g for 5 min for each run. A 60% erythrocyte solution was incubated at 37 °C for 1h 30 min with trypsin (1 mg/mL), chymotrypsin (1 mg/mL) and neuraminidase (100 μU/mL). After three washes using 250× g for 3 min, 4 × 10^5 erythrocytes were incubated with 5 μM […] at 37 °C for 45 min in the dark. An assay was carried out with erythrocytes treated at 37 °C for 30 min or with 0.05% or 0.005% triton X-100 for 15 min at room temperature (RT) for using them as cell lysis controls. A FACSC Canto II cytometer (BD) was used for determining cell viability by analysing 100,000 events.
as §1

[2] = tested on: bovine erythrocyte membrane receptor; assay: Cross-linking assay (BS3, SDS-PAGE, autoradiography); format: binding; conditions: autoradiogram, Figure 2c
Method: Cross-linking assays were used in triplicate for evaluating B. bovis AMA-1 interaction with any membrane receptor. The assay consisted of incubating radiolabelled peptide with 7.5 × 10^7 bovine erythrocytes (v/v) at RT for 2 h at 4 rpm. A competition assay was used as control using an excess of non-radiolabelled peptide. The mixture was incubated for two hours at RT with 0.4 µg/mL bis(sulphosuccinimidyl) suberate (BS3) and then washed thrice with HBS. The cells were then lysed in 30 µL lysis buffer (15 µL buffer A (50 mM Tris-HCl, 100 mM NaCl and 0.1 mM EDTA) and 15 µL buffer B (0.5 M Tris-HCl, 10% SDS (w/v), 25% glycerol, 0.5% (w/v) bromophenol blue and […] β-mercaptoethanol, pH 6.8)) and spun at 14,000× g for 10 min. SDS-PAGE was used for separating the proteins and radioactivity signals were observed by autoradiography. Radiolabelled peptide 43437 (1 µM) binding competition assay involved using different non-radiolabelled peptide 42438 concentrations (0–160 µM).

[3] = molecular target: receptor on bovine erythrocytes having an apparent 75 kDa molecular weight (bovine (endogenous in bovine erythrocytes)); assay: radioligand binding; saturation: 7.5 x 10^7 bovine erythrocytes, 125I-peptide 0-6000 nM without or with ~26 μM unlabelled peptide, 245 μL, 90 min at RT, HBS washes; 1:1 model, Hill plot
[4] = molecular target: receptor on bovine erythrocytes having an apparent 75 kDa molecular weight (bovine (endogenous in bovine erythrocytes)); assay: radioligand binding; as the screen but on erythrocytes treated beforehand with trypsin (1 mg/mL), chymotrypsin (1 mg/mL) or neuraminidase (100 μU/mL); 1 h at 37 °C without shaking; untreated erythrocytes as control

CPMHPVRDAIFGKWSGGSCV [compound 42443]
specific binding slope (binding activity) (bovine erythrocytes; 7.5 × 10^7 normal cells, 2 h at RT, radiolabelled peptide 20–200 nM, absence or presence of non-radiolabelled peptide 20 μM, 200 μL, triplicate, HABP if slope ≥0.01 (1%)): > 0.01
Kd (bovine RBCs): 2400 nM
reduction of binding with chymotrypsin-treated erythrocytes ([1]; erythrocytes treated with chymotrypsin 1 mg/mL): 46%
reduction of binding with neuraminidase-treated erythrocytes ([1]; erythrocytes treated with neuraminidase 100 μU/mL): 42%
reduction of binding with trypsin-treated erythrocytes ([1]; erythrocytes treated with trypsin 1 mg/mL): a lesser effect
intensity of cross-linking interaction with the receptor [2]: significantly less intense

RGVGMNWATYDKDSG [^395R-G^409]
interaction with bovine erythrocytes (binding activity, in words) (bovine erythrocytes; radiolabelled peptide-cell interaction assay, Figure 1b): did not interact with bovine erythrocytes

GYESVGSKSYRMPVGKSPVV (also: 125I radio-iodination in tracer use, site not given here) [B. bovis AMA-1 Domain I-derived peptide 42438]
Kd [3]: 1300 nM
percent reduction of binding, chymotrypsin-treated against untreated erythrocytes [4]: 66%

YMQKFDIPRNHGSGIYVDLG (also: 125I radio-iodination, site not given here) [B. bovis AMA-1 Domain I-derived peptide 42437]
Kd [3]: 1100 nM
percent reduction of binding, chymotrypsin-treated against untreated erythrocytes [4]: 58%
percent reduction of binding, neuraminidase-treated against untreated erythrocytes [4]: 36%
percent reduction of binding, trypsin-treated against untreated erythrocytes [4]: 31%
